Assay results reported in the NIST ThermoML archive (doi:10.1016/j.jct.2013.05.019).
± gives the expanded uncertainty stated by the source.

Assay: xn = mol fraction of the nth substance listed
Conditions: 101 kPa, Liquid; for viscosity: Falling or rolling sphere viscometry; for mass density: Vibrating tube method; for electrical conductivity: Alternating current cell with electrodes

CC(=O)O.CCCCN [butylammonium acetate] + O
Conditions	electrical conductivity [S/m]	mass density [kg/m3]	viscosity [mPa·s]
293.15 K, x1 = 0.031	–	1009.89 ± 0.11	2.659 ± 0.058
293.15 K, x1 = 0.06	–	1015.91 ± 0.11	4.018 ± 0.088
293.15 K, x1 = 0.0992	–	1014.35 ± 0.11	6.792 ± 0.15
293.15 K, x1 = 0.2007	–	1003.86 ± 0.11	16.91 ± 0.38
293.15 K, x1 = 0.2999	–	993.39 ± 0.12	35.04 ± 0.76
293.15 K, x1 = 0.4013	–	984.8 ± 0.12	53.35 ± 1.1
293.15 K, x1 = 0.5004	–	977.72 ± 0.13	101.3 ± 3.1
293.15 K, x1 = 0.5666	–	974.54 ± 0.14	141.64 ± 5.5
293.15 K, x1 = 0.7973	–	964.56 ± 0.18	390.26 ± 27
293.15 K, x1 = 0.8972	–	962.15 ± 0.21	579.35 ± 48
293.15 K, x1 = 1	–	959.61 ± 0.23	771.69 ± 71
298.15 K, x1 = 0.0006	0.168 ± 0.039	–	–
298.15 K, x1 = 0.0012	0.316 ± 0.032	–	–
298.15 K, x1 = 0.0018	0.434 ± 0.034	–	–
298.15 K, x1 = 0.0026	0.572 ± 0.036	–	–
298.15 K, x1 = 0.0032	0.67 ± 0.029	–	–
298.15 K, x1 = 0.0046	0.842 ± 0.03	–	–
298.15 K, x1 = 0.0078	1.12 ± 0.026	–	–
298.15 K, x1 = 0.0121	1.34 ± 0.027	–	–
298.15 K, x1 = 0.0181	1.45 ± 0.029	–	–
298.15 K, x1 = 0.031	–	1006.58 ± 0.12	2.328 ± 0.05
298.15 K, x1 = 0.0329	1.54 ± 0.031	–	–
298.15 K, x1 = 0.06	–	1013.18 ± 0.11	3.345 ± 0.073
298.15 K, x1 = 0.0682	1.58 ± 0.032	–	–
298.15 K, x1 = 0.0992	–	1011.15 ± 0.11	5.626 ± 0.12
298.15 K, x1 = 0.0999	1.54 ± 0.031	–	–
298.15 K, x1 = 0.2001	1.16 ± 0.023	–	–
298.15 K, x1 = 0.2007	–	1000.82 ± 0.11	13.83 ± 0.3
298.15 K, x1 = 0.2999	–	990.34 ± 0.12	28.14 ± 0.61
298.15 K, x1 = 0.3479	0.513 ± 0.01	–	–
298.15 K, x1 = 0.4013	–	981.74 ± 0.12	46.77 ± 1
298.15 K, x1 = 0.5004	–	974.67 ± 0.13	77.42 ± 1.9
298.15 K, x1 = 0.5427	0.164 ± 0.003	–	–
298.15 K, x1 = 0.5666	–	971.45 ± 0.14	102.65 ± 3.1
298.15 K, x1 = 0.7973	–	961.46 ± 0.18	283.43 ± 17
298.15 K, x1 = 0.8065	0.074 ± 0.002	–	–
298.15 K, x1 = 0.8972	–	958.98 ± 0.21	415.18 ± 30
298.15 K, x1 = 1	0.021 ± 0.001	956.44 ± 0.23	546.35 ± 44
303.15 K, x1 = 0.031	–	1003.24 ± 0.12	2.196 ± 0.047
303.15 K, x1 = 0.06	–	1009.87 ± 0.11	2.864 ± 0.062
303.15 K, x1 = 0.0992	–	1007.91 ± 0.11	4.714 ± 0.1
303.15 K, x1 = 0.2007	–	997.74 ± 0.11	11.79 ± 0.25
303.15 K, x1 = 0.2999	–	987.26 ± 0.12	22.91 ± 0.5
303.15 K, x1 = 0.4013	–	978.64 ± 0.13	40.9 ± 0.88
303.15 K, x1 = 0.5004	–	971.64 ± 0.14	60.97 ± 1.3
303.15 K, x1 = 0.5666	–	968.34 ± 0.14	82.19 ± 2.1
303.15 K, x1 = 0.7973	–	958.36 ± 0.18	211.13 ± 10
303.15 K, x1 = 0.8972	–	955.83 ± 0.21	304.3 ± 19
303.15 K, x1 = 1	–	953.33 ± 0.23	397.17 ± 28
308.15 K, x1 = 0.031	–	999.87 ± 0.12	1.864 ± 0.04
308.15 K, x1 = 0.06	–	1006.52 ± 0.11	2.439 ± 0.053
308.15 K, x1 = 0.0992	–	1004.62 ± 0.11	3.985 ± 0.086
308.15 K, x1 = 0.2007	–	994.62 ± 0.11	9.893 ± 0.21
308.15 K, x1 = 0.2999	–	984.17 ± 0.12	18.78 ± 0.41
308.15 K, x1 = 0.4013	–	975.55 ± 0.13	35.59 ± 0.77
308.15 K, x1 = 0.5004	–	968.58 ± 0.14	48.93 ± 1.1
308.15 K, x1 = 0.5666	–	965.22 ± 0.14	65.48 ± 1.5
308.15 K, x1 = 0.7973	–	955.23 ± 0.18	160.94 ± 6.7
308.15 K, x1 = 0.8972	–	952.69 ± 0.21	227.72 ± 12
308.15 K, x1 = 1	–	950.15 ± 0.23	294.59 ± 18
313.15 K, x1 = 0.031	–	996.47 ± 0.12	1.665 ± 0.036
313.15 K, x1 = 0.06	–	1003.14 ± 0.11	2.132 ± 0.046
313.15 K, x1 = 0.0992	–	1001.29 ± 0.11	3.489 ± 0.075
313.15 K, x1 = 0.2007	–	991.43 ± 0.11	8.389 ± 0.18
313.15 K, x1 = 0.2999	–	981.07 ± 0.12	15.67 ± 0.34
313.15 K, x1 = 0.4013	–	972.44 ± 0.13	31 ± 0.67
313.15 K, x1 = 0.5004	–	965.54 ± 0.14	42.95 ± 0.92
313.15 K, x1 = 0.5666	–	962.11 ± 0.14	56.12 ± 1.2
313.15 K, x1 = 0.7973	–	952.09 ± 0.18	133.31 ± 4.9
313.15 K, x1 = 0.8972	–	949.53 ± 0.21	180.6 ± 8.1
313.15 K, x1 = 1	–	946.98 ± 0.23	222.24 ± 11

CCCC[NH3+].O=[N+]([O-])[O-] [n-butylammonium nitrate] + O
Conditions	electrical conductivity [S/m]	mass density [kg/m3]	viscosity [mPa·s]
293.15 K, x1 = 0.1	–	1059.97 ± 0.12	2.468 ± 0.053
293.15 K, x1 = 0.2001	–	1081.27 ± 0.13	4.454 ± 0.096
293.15 K, x1 = 0.3009	–	1090.62 ± 0.14	7.217 ± 0.16
293.15 K, x1 = 0.4004	–	1095.83 ± 0.15	11.69 ± 0.25
293.15 K, x1 = 0.5011	–	1099.15 ± 0.16	17.61 ± 0.38
293.15 K, x1 = 0.6505	–	1102.02 ± 0.2	31.21 ± 0.69
293.15 K, x1 = 0.7869	–	1103.62 ± 0.23	51.54 ± 1.1
293.15 K, x1 = 0.9022	–	1104.42 ± 0.27	78.32 ± 2
293.15 K, x1 = 1	–	1104.68 ± 0.31	111.35 ± 3.6
298.15 K, x1 = 0.001	0.583 ± 0.065	–	–
298.15 K, x1 = 0.002	0.997 ± 0.059	–	–
298.15 K, x1 = 0.004	1.55 ± 0.054	–	–
298.15 K, x1 = 0.005	1.73 ± 0.052	–	–
298.15 K, x1 = 0.006	1.89 ± 0.055	–	–
298.15 K, x1 = 0.0081	2.18 ± 0.05	–	–
298.15 K, x1 = 0.02	2.95 ± 0.06	–	–
298.15 K, x1 = 0.03	3.19 ± 0.06	–	–
298.15 K, x1 = 0.05	3.4 ± 0.07	–	–
298.15 K, x1 = 0.0609	3.46 ± 0.07	–	–
298.15 K, x1 = 0.1	3.42 ± 0.07	1056.89 ± 0.12	2.221 ± 0.048
298.15 K, x1 = 0.1999	3.31 ± 0.07	–	–
298.15 K, x1 = 0.2001	–	1078.05 ± 0.13	3.908 ± 0.084
298.15 K, x1 = 0.2997	2.95 ± 0.06	–	–
298.15 K, x1 = 0.3009	–	1087.35 ± 0.14	6.297 ± 0.14
298.15 K, x1 = 0.3999	2.52 ± 0.05	–	–
298.15 K, x1 = 0.4004	–	1092.56 ± 0.15	10.08 ± 0.22
298.15 K, x1 = 0.4998	2.08 ± 0.04	–	–
298.15 K, x1 = 0.5011	–	1095.89 ± 0.16	15.1 ± 0.33
298.15 K, x1 = 0.5986	1.77 ± 0.035	–	–
298.15 K, x1 = 0.6505	–	1098.8 ± 0.19	26.25 ± 0.57
298.15 K, x1 = 0.6979	1.45 ± 0.029	–	–
298.15 K, x1 = 0.7869	–	1100.42 ± 0.23	42.46 ± 0.93
298.15 K, x1 = 0.799	1.23 ± 0.025	–	–
298.15 K, x1 = 0.9001	1.01 ± 0.02	–	–
298.15 K, x1 = 0.9022	–	1101.25 ± 0.27	65.05 ± 1.5
298.15 K, x1 = 1	0.867 ± 0.017	1101.52 ± 0.31	89.95 ± 2.5
303.15 K, x1 = 0.1	–	1053.73 ± 0.12	1.963 ± 0.042
303.15 K, x1 = 0.2001	–	1074.8 ± 0.13	3.459 ± 0.074
303.15 K, x1 = 0.3009	–	1084.06 ± 0.13	5.545 ± 0.12
303.15 K, x1 = 0.4004	–	1089.29 ± 0.15	8.783 ± 0.19
303.15 K, x1 = 0.5011	–	1092.64 ± 0.16	13.08 ± 0.28
303.15 K, x1 = 0.6505	–	1095.58 ± 0.19	22.35 ± 0.49
303.15 K, x1 = 0.7869	–	1097.24 ± 0.23	35.45 ± 0.78
303.15 K, x1 = 0.9022	–	1098.1 ± 0.27	53.53 ± 1.1
303.15 K, x1 = 1	–	1098.38 ± 0.31	73.04 ± 1.8
308.15 K, x1 = 0.1	–	1050.52 ± 0.12	1.754 ± 0.038
308.15 K, x1 = 0.2001	–	1071.53 ± 0.13	3.088 ± 0.066
308.15 K, x1 = 0.3009	–	1080.78 ± 0.13	4.924 ± 0.11
308.15 K, x1 = 0.4004	–	1086.02 ± 0.14	7.715 ± 0.17
308.15 K, x1 = 0.5011	–	1089.4 ± 0.16	11.42 ± 0.25
308.15 K, x1 = 0.6505	–	1092.38 ± 0.19	19.25 ± 0.42
308.15 K, x1 = 0.7869	–	1094.08 ± 0.23	29.98 ± 0.66
308.15 K, x1 = 0.9022	–	1094.97 ± 0.27	44.59 ± 0.98
308.15 K, x1 = 1	–	1095.26 ± 0.31	60.25 ± 1.3
313.15 K, x1 = 0.1	–	1047.4 ± 0.12	1.579 ± 0.034
313.15 K, x1 = 0.2001	–	1068.24 ± 0.13	2.774 ± 0.059
313.15 K, x1 = 0.3009	–	1077.49 ± 0.13	4.401 ± 0.094
313.15 K, x1 = 0.4004	–	1082.76 ± 0.14	6.823 ± 0.15
313.15 K, x1 = 0.5011	–	1086.16 ± 0.16	10.04 ± 0.22
313.15 K, x1 = 0.6505	–	1089.2 ± 0.19	16.75 ± 0.36
313.15 K, x1 = 0.7869	–	1090.94 ± 0.22	25.8 ± 0.56
313.15 K, x1 = 0.9022	–	1091.86 ± 0.26	37.54 ± 0.82
313.15 K, x1 = 1	–	1092.17 ± 0.3	50.12 ± 1.1
